Test results from ChEMBL document CHEMBL4393673, “Design, synthesis and biological evaluation of pyridine-chalcone derivatives as novel microtubule-destabilizing agents” (Eur J Med Chem, 2019).

Tests used:
[1] = target: Tubulin; experiment: Inhibition of tubulin polymerization (unknown origin) in presence of GTP measured after 60 mins by spectrophotometric method; format: protein-complex assay, Homo sapiens
[2] = tested on: L02; experiment: cells; conditions: Homo sapiens, L02, 72 h
Description: Cytotoxicity against human LO2 cells assessed as reduction in cell viability after 72 hrs by MTT assay

[3] = target: T1, Tubulin (Sus scrofa) (UniProt P02554+P02550); experiment: Inhibition of [3H]colchicine binding to biotinylated porcine tubulin at 5 uM in presence of GTP after 2 hrs by scintillation proximity assay relative to control; format: protein assay
[4] = target: T1, Tubulin (Sus scrofa); experiment: Inhibition of [3H]colchicine binding to biotinylated porcine tubulin at 1 uM in presence of GTP after 2 hrs by scintillation proximity assay relative to control; format: protein assay
[5] = Antiproliferative activity against […] cells assessed as reduction in cell viability after 72 hrs by MTT assay; format: functional, cell-based; conditions: H22, 72 h
[6] = tested on: K562; experiment: Antiproliferative activity against human K562 cells assessed as reduction in cell viability after 72 hrs by MTT assay; format: functional, cell-based; conditions: K562, 72 h
[7] = tested on: H22; experiment: Antitumor activity against mouse H22 cells allografted in ICR mouse assessed as reduction in tumour weight at 6 mg/kg, iv administered once per 2 days for 21 days relative to control; format: functional
[8] = Toxicity in ICR mouse allografted with mouse H22 cells assessed as body weight loss at 6 mg/kg, iv administered once per 2 days for 21 days; format: organism-based; conditions: in vivo
[9] = tested on: MDA-MB-231; experiment: cells; conditions: Homo sapiens, MDA-MB-231, 72 h
Description: Antiproliferative activity against human MDA-MB-231 cells assessed as reduction in cell viability after 72 hrs by MTT assay

[10] = tested on: H22; experiment: Antitumor activity against mouse H22 cells allografted in ICR mouse assessed as reduction in tumour weight at 20 mg/kg, iv administered once per day for 21 days relative to control; format: functional; conditions: 504 h
[11] = tested on: KB; experiment: Antiproliferative activity against human KB cells assessed as reduction in cell viability after 72 hrs by MTT assay; format: functional, cell-based
[12] = tested on: HCT-8; experiment: Antiproliferative activity against human HCT8 cells assessed as reduction in cell viability after 72 hrs by MTT assay; format: functional, cell-based; conditions: HCT-8, 72 h
[13] = target: T2, Tubulin (Homo sapiens) (UniProt P68371+Q9H4B7+P0DPH7+P68366+Q13509+Q71U36+P04350+Q3ZCM7+P07437+P68363+Q9BQE3+Q6PEY2+Q13885+Q9BVA1+Q9BUF5); experiment: Inhibition of tubulin polymerization in human K562 cells assessed as disruption of cytosolic microtubule networks after 24 hrs by DAPI staining based immunofluorescence microscopic method; format: cell-based
[14] = target: T2, Tubulin (Homo sapiens); experiment: Inhibition of tubulin polymerization in human MDA-MB-231 cells assessed as disruption of cytosolic microtubule networks after 24 hrs by DAPI staining based immunofluorescence microscopic method; format: cell-based

T1 sequence (P02550 whole entry, looked up): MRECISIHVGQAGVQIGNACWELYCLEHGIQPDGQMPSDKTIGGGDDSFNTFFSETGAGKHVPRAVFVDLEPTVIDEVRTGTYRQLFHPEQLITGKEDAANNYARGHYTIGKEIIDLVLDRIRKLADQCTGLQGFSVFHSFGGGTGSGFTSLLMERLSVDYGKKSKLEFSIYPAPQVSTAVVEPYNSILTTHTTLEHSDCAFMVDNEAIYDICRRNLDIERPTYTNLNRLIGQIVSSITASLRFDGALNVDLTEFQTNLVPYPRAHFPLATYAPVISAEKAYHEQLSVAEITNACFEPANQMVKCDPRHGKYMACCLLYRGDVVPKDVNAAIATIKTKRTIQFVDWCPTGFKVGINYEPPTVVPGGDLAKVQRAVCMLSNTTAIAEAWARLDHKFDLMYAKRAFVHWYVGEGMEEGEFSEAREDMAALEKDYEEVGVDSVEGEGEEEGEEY
T1 sequence (P02554 whole entry, looked up): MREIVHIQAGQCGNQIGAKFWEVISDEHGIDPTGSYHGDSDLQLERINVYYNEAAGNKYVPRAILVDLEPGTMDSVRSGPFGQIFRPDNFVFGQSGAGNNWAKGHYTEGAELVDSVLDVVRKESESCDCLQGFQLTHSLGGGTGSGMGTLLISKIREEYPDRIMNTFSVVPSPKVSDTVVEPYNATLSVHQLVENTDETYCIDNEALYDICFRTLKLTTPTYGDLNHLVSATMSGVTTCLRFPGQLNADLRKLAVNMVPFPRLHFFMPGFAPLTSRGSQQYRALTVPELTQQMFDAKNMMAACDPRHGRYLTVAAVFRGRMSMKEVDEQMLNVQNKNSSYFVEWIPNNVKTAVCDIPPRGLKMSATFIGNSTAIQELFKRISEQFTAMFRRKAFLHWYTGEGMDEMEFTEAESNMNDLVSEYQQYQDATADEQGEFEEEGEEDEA

| SMILES | IC50 [1] [µM] | inhibition [3] [%] | inhibition [4] [%] | IC50 [5] [µM] | inhibition in vivo at 20 mg/kg [10] [%] | also measured |
| --- | --- | --- | --- | --- | --- | --- |
| COc1ccc(/C=C/C(=O)c2cc(OC)c(OC)c(OC)c2)cc1O | 3.05 | 78.3 | 70.2 | 0.132 | – | IC50 [2]: 0.421 µM; IC50 [6]: 0.068 µM |
| CC(=O)O[C@H]1C(=O)[C@@]2(C)[C@H]([C@H](OC(=O)c3ccccc3)[C@]3(O)C[C@H](OC(=O)[C@H](O)[C@@H](NC(=O)c4ccccc4)c4ccccc4)C(C)=C1C3(C)C)[C@]1(OC(C)=O)CO[C@@H]1C[C@@H]2O [PACLITAXEL] | – | – | – | – | – | inhibition in vivo at 6 mg/kg [7]: 72.7%; Activity [8]: Toxic |
| COc1ccc(/C=C\c2cc(OC)c(OC)c(OC)c2)cc1O [COMBRETASTATIN A4] | – | – | – | 0.008 | 50.9 | IC50 [9]: 0.01 µM; IC50 [11]: 0.011 µM; IC50 [12]: 0.01 µM |
| COc1cc(C(=O)/C(C)=C/c2ccc(OC)c(O)c2)cc(OC)n1 | 2.08 | 87.9 | 75.1 | – | – | Activity [13]: Dose-dependent effect; Activity [14]: Dose-dependent effect |
| COc1ccc(/C=C\c2cc(OC)c(OC)c(OC)c2)cc1OP(=O)(O)O [FOSBRETABULIN DISODIUM] | – | – | – | – | 62.7 | – |
